Test results as given in ChEMBL document CHEMBL1153413, “Pyranonaphthoquinone lactones: a new class of AKT selective kinase inhibitors alkylate a regulatory loop cysteine” (J Med Chem, 2009).
Calls of active or inactive are those of the source. The rule behind the calls is not given here.

How the values were obtained:
[1] = biological target: T1, RAC-alpha serine/threonine-protein kinase (Homo sapiens, UniProt P31749); assay: Inhibition of AKT
[2] = Cytotoxicity against human MDA468 cells expressing AKT; type: functional, cell-based, MDA-MB-468
[3] = biological target: T1, RAC-alpha serine/threonine-protein kinase; assay: Inhibition of AKT at < 10 uM

T1 sequence (P31749 whole entry): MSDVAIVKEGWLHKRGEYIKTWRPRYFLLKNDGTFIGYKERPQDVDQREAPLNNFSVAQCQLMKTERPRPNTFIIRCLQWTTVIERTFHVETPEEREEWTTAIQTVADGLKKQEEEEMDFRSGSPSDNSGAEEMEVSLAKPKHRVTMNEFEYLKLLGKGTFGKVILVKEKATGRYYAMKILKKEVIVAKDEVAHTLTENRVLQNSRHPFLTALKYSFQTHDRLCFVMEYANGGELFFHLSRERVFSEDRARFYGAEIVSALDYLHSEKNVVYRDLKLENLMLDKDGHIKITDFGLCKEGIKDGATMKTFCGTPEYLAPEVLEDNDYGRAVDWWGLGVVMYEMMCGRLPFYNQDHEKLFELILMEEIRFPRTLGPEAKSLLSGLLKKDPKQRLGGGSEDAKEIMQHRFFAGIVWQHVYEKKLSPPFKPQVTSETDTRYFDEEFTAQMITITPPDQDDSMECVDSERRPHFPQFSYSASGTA

Row | SMILES | IC50 [1] [µM] | IC50 ([2]; Homo sapiens, MDA-MB-468) [µM] | Activity [3] | IC50 ([2]; mda-mb-468) [µM]
1 | O=C1C[C@H]2OC3(CCCC3)C3=C(C(=O)c4ccccc4C3=O)[C@H]2O1 (racemic) | 0.295 | 1.6 |  | 
2 | O=C1C[C@H]2OCC3=C(C(=O)c4ccccc4C3=O)[C@H]2O1 | 0.044 | 0.8 |  | 
3 | CCC[C@H]1O[C@@H]2CC(=O)O[C@@H]2C2=C1C(=O)c1ccccc1C2=O (racemic) | 0.163 | 0.6 |  | 
4 | CCOC(=O)C[C@@H]1CC2=C(C(=O)c3ccccc3C2=O)[C@@H](c2cccs2)O1 |  |  | inactive | 
5 | CCC[C@@H]1O[C@H](CC(=O)OCC)CC2=C1C(=O)c1ccccc1C2=O (racemic) |  |  | inactive | 
6 | CCC[C@H]1O[C@H](CC(=O)OCC)CC2=C1C(=O)c1ccccc1C2=O (racemic) |  |  | inactive | 
7 | CCC[C@H]1O[C@@H]2CC(=O)O[C@@H]2C2=C1C(=O)c1c(OC)cccc1C2=O | 0.497 | 1.11 |  | 
8 | CCOC(=O)C[C@@H]1CC2=C(C(=O)c3ccccc3C2=O)[C@@H](c2ccsc2)O1 (stereo in doubt; (-)) |  |  | inactive | 
9 | CCC[C@H]1O[C@@H]2CC(=O)O[C@@H]2C2=C1C(=O)c1c(O)cccc1C2=O [FRENOLICIN B] | 0.198 | 0.06 |  | 
10 | O=C1C[C@H]2O[C@@H](c3ccc(O)cc3)C3=C(C(=O)c4ccccc4C3=O)[C@H]2O1 (racemic) | 0.08 | 0.55 |  | 
11 | Nc1ccc([C@@H]2O[C@@H]3CC(=O)O[C@@H]3C3=C2C(=O)c2ccccc2C3=O)cc1 (racemic) | 0.85 | 0.55 |  | 
12 | O=C1C[C@H]2O[C@H](c3ccsc3)C3=C(C(=O)c4ccccc4C3=O)[C@H]2O1 (stereo in doubt; (-)) | 0.099 |  |  | 0.41
13 | O=C1C[C@H]2O[C@H](COCc3ccccc3)C3=C(C(=O)c4ccccc4C3=O)[C@H]2O1 (racemic) | 0.072 | 1 |  | 
14 | CCC[C@@H]1O[C@@H]2CC(=O)O[C@@H]2C2=C1C(=O)c1ccccc1C2=O (racemic) | 0.383 | 1.3 |  | 
15 | CCOC(=O)C[C@@H]1CC2=C(C(=O)c3ccccc3C2=O)[C@@H](COCc2ccccc2)O1 (racemic) |  |  | inactive | 
